From ChEMBL document CHEMBL4602703, “Lead Optimization of a Pyrrole-Based Dihydroorotate Dehydrogenase Inhibitor Series for the Treatment of Malaria” (J Med Chem, 2020)
Values after ≈ are worked out from the molar mass of the structure shown.

What was measured:
Plasmodium falciparum [1] = test: microbe, parasite or virus in culture; settings: 3D7, 72 h
physchem [2] = settings: PBS, pH 7.4
[3] = Protein binding in DMEM medium containing 10% fetal calf serum by LC-MS analysis based ultracentrifugation assay; assay type: ADME, cell-free, Bos taurus; settings: cattle, serum
Plasmodium falciparum [4] = assay type: functional, organism-based; settings: R10C1B, 72 h
Plasmodium falciparum [5] = test: Antimalarial activity against Plasmodium falciparum R1AC1B harboring DHODH C276F mutant measured after 72 hrs by SYBR Green dye based fluorescence assay; assay type: functional, organism-based
physchem [6] = settings: fasted state simulated intestinal fluid, pH 6.5
Plasmodium falciparum [7] = test: Antimalarial activity against Plasmodium falciparum 3D70087/N9 infected in po dosed NOD-SCID IL2Rgamma null mouse administered BID for 4 days by flow cytometric analysis; assay type: functional; settings: 3D70087/N9, po, 96 h
in vivo [8] = settings: Swiss, mouse, po, 10 mg/kg
[9] = Oral bioavailability in Swiss mouse at 10 mg/kg by LC-MS analysis; assay type: ADME, organism-based; settings: in vivo
[10] = Clearance in Sprague-Dawley rat plasma at […], iv by LC-MS analysis; assay type: ADME, organism-based; settings: in vivo
[11] = Intrinsic clearance in liver microsomes assessed as per mg protein; settings: read-out: CLH
[12] = Inhibition of yeast DHODH transformed in Plasmodium falciparum D10 in presence of 10 uM proguanil; design: species or system Saccharomyces cerevisiae
[13] = simulated gi fluid, pH 5.8
[14] = Cmax in Swiss mouse at 10 mg/kg, po by LC-MS analysis; assay type: ADME, organism-based; design: dose 10 mg/kg, route oral; settings: in vivo
[15] = Intrinsic clearance in human liver microsomes assessed as per mg protein; assay type: ADME, Microsome
HepG2 = test: Cytotoxicity against human HepG2 cells assessed as reduction in cell viability; assay type: cell-based
L1210 = test: Cytotoxicity against mouse L1210 cells assessed as reduction in cell viability; assay type: cell-based
[16] = Apparent half life in Swiss mouse at 10 mg/kg, po by LC-MS analysis; assay type: ADME, organism-based; settings: in vivo, read-out: t1/2(app) (converted)
Plasmodium falciparum [17] = assay type: functional, organism-based; settings: R2B, 72 h
Albumin [18] = biological target: T1, Albumin (Homo sapiens, UniProt P02768); test: Binding affinity to albumin (unknown origin) in ALBUMAX medium; assay type: ADME; settings: read-out: PB (converted)
T1 sequence (P02768 whole entry): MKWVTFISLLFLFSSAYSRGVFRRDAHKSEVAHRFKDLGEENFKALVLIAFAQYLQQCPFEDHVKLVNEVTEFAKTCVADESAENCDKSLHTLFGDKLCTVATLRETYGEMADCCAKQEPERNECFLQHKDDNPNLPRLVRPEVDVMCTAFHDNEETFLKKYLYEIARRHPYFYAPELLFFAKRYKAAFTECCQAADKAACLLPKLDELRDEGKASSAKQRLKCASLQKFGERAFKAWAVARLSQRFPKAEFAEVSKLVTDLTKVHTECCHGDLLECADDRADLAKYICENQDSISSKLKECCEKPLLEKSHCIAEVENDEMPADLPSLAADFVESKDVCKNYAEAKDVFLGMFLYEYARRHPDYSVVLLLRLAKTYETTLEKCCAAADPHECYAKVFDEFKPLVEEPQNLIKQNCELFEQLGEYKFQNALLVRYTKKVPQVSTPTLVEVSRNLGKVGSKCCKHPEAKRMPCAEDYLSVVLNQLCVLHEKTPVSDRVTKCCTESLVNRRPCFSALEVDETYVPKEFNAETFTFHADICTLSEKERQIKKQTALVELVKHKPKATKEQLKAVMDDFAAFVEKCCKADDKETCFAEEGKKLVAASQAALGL

[19] = biological target: T2, Voltage-gated inwardly rectifying potassium channel KCNH2 (Homo sapiens, UniProt Q12809); test: Inhibition of human ERG by patch clamp assay
T2 sequence (Q12809 whole entry): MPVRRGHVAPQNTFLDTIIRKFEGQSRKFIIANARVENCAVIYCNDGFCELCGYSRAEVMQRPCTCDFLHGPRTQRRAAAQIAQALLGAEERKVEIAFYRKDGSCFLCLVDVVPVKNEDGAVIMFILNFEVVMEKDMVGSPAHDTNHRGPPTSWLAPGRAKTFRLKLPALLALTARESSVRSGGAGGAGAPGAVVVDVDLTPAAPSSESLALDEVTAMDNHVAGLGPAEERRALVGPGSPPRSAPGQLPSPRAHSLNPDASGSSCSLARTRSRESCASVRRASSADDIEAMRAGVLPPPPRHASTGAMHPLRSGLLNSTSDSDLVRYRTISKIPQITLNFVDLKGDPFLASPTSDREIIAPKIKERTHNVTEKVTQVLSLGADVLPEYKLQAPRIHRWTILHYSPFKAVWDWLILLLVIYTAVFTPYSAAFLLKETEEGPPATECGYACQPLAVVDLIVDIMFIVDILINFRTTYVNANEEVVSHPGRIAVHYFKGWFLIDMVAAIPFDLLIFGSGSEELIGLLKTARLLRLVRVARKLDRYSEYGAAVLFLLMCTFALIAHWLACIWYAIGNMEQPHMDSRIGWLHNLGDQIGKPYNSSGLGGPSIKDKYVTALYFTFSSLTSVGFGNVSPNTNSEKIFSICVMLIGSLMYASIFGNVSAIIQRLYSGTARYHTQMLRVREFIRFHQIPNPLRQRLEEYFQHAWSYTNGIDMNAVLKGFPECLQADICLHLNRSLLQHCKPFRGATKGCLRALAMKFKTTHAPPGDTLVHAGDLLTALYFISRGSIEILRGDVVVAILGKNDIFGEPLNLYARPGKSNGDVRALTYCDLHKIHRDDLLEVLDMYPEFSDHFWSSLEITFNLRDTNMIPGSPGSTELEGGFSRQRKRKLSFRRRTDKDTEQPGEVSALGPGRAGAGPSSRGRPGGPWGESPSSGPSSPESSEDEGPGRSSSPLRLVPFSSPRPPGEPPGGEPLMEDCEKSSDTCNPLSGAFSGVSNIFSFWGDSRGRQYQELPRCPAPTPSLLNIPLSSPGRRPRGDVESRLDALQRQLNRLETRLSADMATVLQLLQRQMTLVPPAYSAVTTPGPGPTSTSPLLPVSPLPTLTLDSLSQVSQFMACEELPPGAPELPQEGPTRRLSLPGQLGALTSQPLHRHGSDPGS

[20] = Protein binding in rat plasma by LC-MS analysis based ultracentrifugation assay; assay type: ADME, cell-free; settings: read-out: PPB (converted)
Plasmodium falciparum [21] = system: Plasmodium falciparum
physchem [22] = settings: fasted state simulated gastric fluid, pH 1.6
Albumin [23] = biological target: T1, Albumin; test: Binding affinity to albumin (unknown origin) by chromatographic method; assay type: ADME; settings: isolated protein
in vivo [24] = settings: Sprague-Dawley, rat, po
[25] = fAUC in Plasmodium falciparum 3D70087/N9 infected po dosed NOD-SCID IL2Rgamma null mouse blood administered once daily for 4 days; assay type: ADME, organism-based; settings: in vivo, 96 h
[26] = Cmax in Sprague-Dawley rat at 18.8 mg/kg, po by LC-MS analysis; assay type: ADME, organism-based; design: dose 18.8 mg/kg, route oral; settings: in vivo
Plasmodium falciparum [27] = test: Antimalarial activity against Plasmodium falciparum R1BC1A harboring DHODH L531F mutant measured after 72 hrs by SYBR Green dye based fluorescence assay; assay type: functional, organism-based
Plasmodium falciparum [28] = test: animal or person; settings: 3D70087/N9, 96 h
Plasmodium falciparum [29] = test: microbe, parasite or virus in culture; settings: 1D3, 72 h
[30] = Protein binding in human liver microsomes by LC-MS analysis based ultracentrifugation assay; assay type: ADME, Microsome; settings: read-out: PB (converted)
[31] = Intrinsic clearance in mouse liver microsomes assessed as per mg protein; assay type: ADME, Microsome; settings: liver microsomes, read-out: CLH
[32] = AUC (0 to infinity) in Swiss mouse at 10 mg/kg, po by LC-MS analysis; assay type: ADME, organism-based; design: dose 10 mg/kg, route oral, time infinity; settings: in vivo
[33] = Inhibition of N-terminal His6-tagged Plasmodium falciparum DHODH expressed in Escherichia coli BL21(DE3) cells using L-DHO as substrate by DCIP dye based assay
[34] = biological target: T2, Voltage-gated inwardly rectifying potassium channel KCNH2; test: Inhibition of human ERG by IonWorks patch clamp electrophysiology assay

Cc1cc(Nc2ccc(S(F)(F)(F)(F)F)cc2)n2nc(C(C)(F)F)nc2n1 [DSM-265]
EC50 (Plasmodium falciparum [1]): 6 nM
solubility (physchem [2]): 2 µg/mL (≈ 4.82 µM)
PB [3]: 78.5%
EC50 (Plasmodium falciparum [4]): 120 to 150 nM
EC50 (Plasmodium falciparum [5]): 170 nM
solubility (physchem [6]): 5.1 µg/mL (≈ 12.3 µM)
ED90 (Plasmodium falciparum [7]): 3 mg/kg/day
Tmax (in vivo [8]): 1 to 2 h
bioavailability [9]: 61%
clearance [10]: 6.5 mL/min/kg
microsomal CLint [11]: < 7 µL/min/mg
EC50 [12]: > 20000 nM
solubility [13]: 27.6 µg/mL (≈ 66.5 µM)
Cmax [14]: 3.94 µM
microsomal CLint [15]: < 7 µL/min/mg
CC50 (HepG2): > 50000 nM
CC50 (L1210): > 50000 nM
half-life [16]: 2.4 h
EC50 (Plasmodium falciparum [17]): 74 to 150 nM
fraction unbound (Albumin [18]): 0.169
EC50 [19]: 1600 nM
fraction unbound [20]: 0.03
fEC50 (Plasmodium falciparum [21]): 0.001 µM
solubility (physchem [22]): 6.8 µg/mL (≈ 16.4 µM)
PB (Albumin [23]): 97.4%
Tmax (in vivo [24]): 3.3 h
fAUC [25]: 15 to 23 ng·h/mL
Cmax [26]: 3.95 µM
EC50 (Plasmodium falciparum [27]): 80 to 110 nM
EC50 (Plasmodium falciparum [28]): 6 nM
EC50 (Plasmodium falciparum [29]): 23 nM
fraction unbound [30]: 0.283
microsomal CLint [31]: 7 to 8 µL/min/mg
AUC(0-inf) [32]: 29.7 µM·h
IC50 [33]: 30 nM
EC50 [34]: 7000 nM
